This note sets out measurements from ChEMBL document CHEMBL5465560, “Selectivity Literature for EUbOPEN Chemogenomic Library” (2024).

Experiment [1] concerns the target T1, Serine/threonine-protein kinase Nek1 (Homo sapiens) (UniProt Q96PY6).
T1 sequence (whole entry): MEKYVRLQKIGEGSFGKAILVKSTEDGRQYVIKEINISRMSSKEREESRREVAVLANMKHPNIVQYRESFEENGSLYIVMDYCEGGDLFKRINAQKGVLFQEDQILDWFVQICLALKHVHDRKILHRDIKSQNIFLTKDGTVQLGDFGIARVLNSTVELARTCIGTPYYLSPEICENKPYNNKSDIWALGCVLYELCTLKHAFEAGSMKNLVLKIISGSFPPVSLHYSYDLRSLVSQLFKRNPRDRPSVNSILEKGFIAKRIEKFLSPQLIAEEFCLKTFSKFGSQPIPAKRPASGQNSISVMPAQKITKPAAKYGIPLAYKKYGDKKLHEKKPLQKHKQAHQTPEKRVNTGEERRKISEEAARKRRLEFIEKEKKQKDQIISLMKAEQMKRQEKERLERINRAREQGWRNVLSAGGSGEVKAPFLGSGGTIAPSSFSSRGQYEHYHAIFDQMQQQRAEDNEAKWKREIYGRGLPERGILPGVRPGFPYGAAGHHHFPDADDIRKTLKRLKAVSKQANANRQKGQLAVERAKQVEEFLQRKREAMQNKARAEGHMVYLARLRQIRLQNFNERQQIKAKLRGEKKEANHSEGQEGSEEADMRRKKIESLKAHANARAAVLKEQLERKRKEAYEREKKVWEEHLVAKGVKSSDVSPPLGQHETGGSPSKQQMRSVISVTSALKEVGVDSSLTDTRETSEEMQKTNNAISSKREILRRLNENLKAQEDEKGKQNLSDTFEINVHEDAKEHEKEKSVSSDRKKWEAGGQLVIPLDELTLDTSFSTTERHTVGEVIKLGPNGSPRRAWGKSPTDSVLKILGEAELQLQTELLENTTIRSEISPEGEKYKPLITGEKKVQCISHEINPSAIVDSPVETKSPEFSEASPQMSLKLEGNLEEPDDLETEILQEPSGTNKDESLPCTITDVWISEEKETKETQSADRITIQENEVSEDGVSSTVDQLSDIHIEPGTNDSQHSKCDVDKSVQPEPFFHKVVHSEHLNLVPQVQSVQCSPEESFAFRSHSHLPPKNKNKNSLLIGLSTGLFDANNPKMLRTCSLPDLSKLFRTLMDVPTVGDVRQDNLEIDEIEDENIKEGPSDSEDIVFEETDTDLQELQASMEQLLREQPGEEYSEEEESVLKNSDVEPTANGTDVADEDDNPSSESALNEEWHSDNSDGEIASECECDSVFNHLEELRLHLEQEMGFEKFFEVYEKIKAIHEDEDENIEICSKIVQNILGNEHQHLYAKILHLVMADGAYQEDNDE
As to the kind of experiment: Selectivity interaction (SelectScreen profiling (Invitrogen)) EUB0000607a NEK1. Particulars: at 2 µM.

Experiment [2] addresses Serine/threonine-protein kinase PAK 4 (Homo sapiens, UniProt O96013). Put plainly: Selectivity interaction (SelectScreen profiling (Invitrogen)) EUB0000607a PAK4. The following applies: at 2 µM.
Experiment [3] relates to Epidermal growth factor receptor (Homo sapiens), P00533 [G719C]. As to the kind of experiment: (§1) Selectivity interaction (KinomeScan (DiscoverX)) EUB0000666a EGFR. Particulars: at 10 µM.
For experiment [4], the system named is Epidermal growth factor receptor (Homo sapiens), P00533 [G719S]. Described as §1. Particulars: at 10 µM.
For experiment [5], the system named is Epidermal growth factor receptor (Homo sapiens), P00533 [L858R,T790M]. The description is as §1. The following applies: at 10 µM.
Experiment [6] has as its system Epidermal growth factor receptor (Homo sapiens), P00533 [L858R]. Described as §1. Particulars: at 10 µM.
Experiment [7] has as its system Epidermal growth factor receptor (Homo sapiens), P00533 [T790M]. The description is as §1. Particulars: at 10 µM.
In experiment [8] the test system is Epidermal growth factor receptor (Homo sapiens), P00533 [UNDEFINED MUTATION]. The experiment is described as §1. The following applies: at 10 µM.
Experiment [9] concerns the target Ribosomal protein S6 kinase alpha-1 (Homo sapiens, UniProt Q15418). Put plainly: Selectivity interaction (ActivX KiNativ screen (ex vivo kinase selectivity in human PBMCs)) EUB0001619a RPS6KA1. The experiment is classed as cell-based. The following applies: PBMC, at 1 µM.
Experiment [10] concerns the target Tyrosine-protein kinase HCK (Homo sapiens) (UniProt P08631). As to the kind of experiment: Selectivity interaction (ActivX KiNativ screen (kinase selectivity in THP-1 cell lysates)) EUB0000639a HCK. The experiment is classed as subcellular. The following applies: lysate.

Tyrosine-protein kinase HCK (Homo sapiens), sequence (P08631 2-526 limits assumed): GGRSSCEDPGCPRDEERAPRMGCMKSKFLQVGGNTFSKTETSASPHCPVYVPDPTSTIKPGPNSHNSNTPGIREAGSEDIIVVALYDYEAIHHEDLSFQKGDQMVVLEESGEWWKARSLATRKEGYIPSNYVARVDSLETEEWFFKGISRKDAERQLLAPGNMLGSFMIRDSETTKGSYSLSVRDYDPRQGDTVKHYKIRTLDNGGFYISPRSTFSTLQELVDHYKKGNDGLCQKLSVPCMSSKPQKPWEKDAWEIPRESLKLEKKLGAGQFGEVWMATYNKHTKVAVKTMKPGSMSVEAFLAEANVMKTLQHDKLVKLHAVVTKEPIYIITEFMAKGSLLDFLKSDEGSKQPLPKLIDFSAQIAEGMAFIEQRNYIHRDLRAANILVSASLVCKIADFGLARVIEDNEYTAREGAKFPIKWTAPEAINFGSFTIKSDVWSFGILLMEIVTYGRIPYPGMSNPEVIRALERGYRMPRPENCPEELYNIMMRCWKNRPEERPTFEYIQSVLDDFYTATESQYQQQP
Epidermal growth factor receptor (Homo sapiens), P00533 [G719S], sequence (P00533 whole entry G719S): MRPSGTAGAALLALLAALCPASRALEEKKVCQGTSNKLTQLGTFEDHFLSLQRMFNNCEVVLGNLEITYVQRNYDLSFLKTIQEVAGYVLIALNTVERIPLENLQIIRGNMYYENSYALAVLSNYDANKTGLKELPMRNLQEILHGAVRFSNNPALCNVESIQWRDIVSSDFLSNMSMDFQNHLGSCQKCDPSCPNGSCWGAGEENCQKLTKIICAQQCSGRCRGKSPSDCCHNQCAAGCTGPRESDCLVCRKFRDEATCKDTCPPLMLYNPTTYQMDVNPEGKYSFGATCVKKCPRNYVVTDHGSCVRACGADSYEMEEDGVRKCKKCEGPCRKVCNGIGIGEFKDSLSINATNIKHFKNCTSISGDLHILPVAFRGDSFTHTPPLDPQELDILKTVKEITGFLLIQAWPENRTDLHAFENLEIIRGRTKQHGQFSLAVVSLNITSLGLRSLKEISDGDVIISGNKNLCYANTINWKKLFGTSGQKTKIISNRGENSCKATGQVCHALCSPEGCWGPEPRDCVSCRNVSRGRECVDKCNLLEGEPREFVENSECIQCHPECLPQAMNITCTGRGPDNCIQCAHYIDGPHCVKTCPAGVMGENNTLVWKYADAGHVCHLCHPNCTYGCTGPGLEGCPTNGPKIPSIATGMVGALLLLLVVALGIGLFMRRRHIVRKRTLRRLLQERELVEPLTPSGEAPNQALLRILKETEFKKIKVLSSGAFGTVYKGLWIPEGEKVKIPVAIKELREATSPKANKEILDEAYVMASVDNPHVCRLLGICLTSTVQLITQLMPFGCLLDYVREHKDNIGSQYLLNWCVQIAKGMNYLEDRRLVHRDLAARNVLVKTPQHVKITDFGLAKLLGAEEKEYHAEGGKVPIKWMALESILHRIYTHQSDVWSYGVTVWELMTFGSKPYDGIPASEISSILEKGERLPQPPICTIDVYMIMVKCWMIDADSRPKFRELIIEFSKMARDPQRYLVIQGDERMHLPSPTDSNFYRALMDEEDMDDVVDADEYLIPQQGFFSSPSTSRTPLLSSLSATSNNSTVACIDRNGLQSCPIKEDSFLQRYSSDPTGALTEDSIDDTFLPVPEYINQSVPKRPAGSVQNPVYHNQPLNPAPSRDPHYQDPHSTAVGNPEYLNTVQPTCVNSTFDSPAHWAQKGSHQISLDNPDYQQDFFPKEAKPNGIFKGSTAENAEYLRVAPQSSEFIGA
Epidermal growth factor receptor (Homo sapiens), P00533 [T790M], sequence (P00533 whole entry T790M): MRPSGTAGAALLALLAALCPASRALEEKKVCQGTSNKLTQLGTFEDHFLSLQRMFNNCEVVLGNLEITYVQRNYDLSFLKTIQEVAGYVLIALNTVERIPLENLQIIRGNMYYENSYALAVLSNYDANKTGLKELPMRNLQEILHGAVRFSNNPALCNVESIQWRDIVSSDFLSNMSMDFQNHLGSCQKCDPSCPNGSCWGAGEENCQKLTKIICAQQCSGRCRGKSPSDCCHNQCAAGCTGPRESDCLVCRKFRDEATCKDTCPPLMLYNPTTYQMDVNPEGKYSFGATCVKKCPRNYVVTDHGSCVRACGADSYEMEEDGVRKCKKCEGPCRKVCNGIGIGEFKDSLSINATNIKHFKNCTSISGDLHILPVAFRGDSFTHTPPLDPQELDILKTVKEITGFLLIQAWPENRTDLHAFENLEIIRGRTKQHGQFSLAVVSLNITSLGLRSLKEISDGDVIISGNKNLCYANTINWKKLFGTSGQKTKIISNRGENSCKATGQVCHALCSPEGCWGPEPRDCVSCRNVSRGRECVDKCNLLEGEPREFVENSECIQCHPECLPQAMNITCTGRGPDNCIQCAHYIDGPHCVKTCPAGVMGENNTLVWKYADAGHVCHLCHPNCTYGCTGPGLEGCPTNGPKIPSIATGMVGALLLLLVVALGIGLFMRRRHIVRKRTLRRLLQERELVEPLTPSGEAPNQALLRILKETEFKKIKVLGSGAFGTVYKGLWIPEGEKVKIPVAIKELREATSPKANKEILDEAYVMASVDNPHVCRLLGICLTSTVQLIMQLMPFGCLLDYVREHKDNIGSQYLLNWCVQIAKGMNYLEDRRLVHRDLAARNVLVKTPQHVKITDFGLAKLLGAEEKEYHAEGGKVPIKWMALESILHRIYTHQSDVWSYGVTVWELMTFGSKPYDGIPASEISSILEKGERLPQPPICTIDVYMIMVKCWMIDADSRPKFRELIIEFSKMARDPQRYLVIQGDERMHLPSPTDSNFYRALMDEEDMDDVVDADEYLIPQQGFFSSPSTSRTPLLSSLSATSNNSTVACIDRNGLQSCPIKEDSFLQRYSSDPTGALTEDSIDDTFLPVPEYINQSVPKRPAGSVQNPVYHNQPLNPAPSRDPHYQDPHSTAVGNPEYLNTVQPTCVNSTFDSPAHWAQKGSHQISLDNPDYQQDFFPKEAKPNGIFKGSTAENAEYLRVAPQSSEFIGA
Epidermal growth factor receptor (Homo sapiens), P00533 [G719C], sequence (P00533 whole entry G719C): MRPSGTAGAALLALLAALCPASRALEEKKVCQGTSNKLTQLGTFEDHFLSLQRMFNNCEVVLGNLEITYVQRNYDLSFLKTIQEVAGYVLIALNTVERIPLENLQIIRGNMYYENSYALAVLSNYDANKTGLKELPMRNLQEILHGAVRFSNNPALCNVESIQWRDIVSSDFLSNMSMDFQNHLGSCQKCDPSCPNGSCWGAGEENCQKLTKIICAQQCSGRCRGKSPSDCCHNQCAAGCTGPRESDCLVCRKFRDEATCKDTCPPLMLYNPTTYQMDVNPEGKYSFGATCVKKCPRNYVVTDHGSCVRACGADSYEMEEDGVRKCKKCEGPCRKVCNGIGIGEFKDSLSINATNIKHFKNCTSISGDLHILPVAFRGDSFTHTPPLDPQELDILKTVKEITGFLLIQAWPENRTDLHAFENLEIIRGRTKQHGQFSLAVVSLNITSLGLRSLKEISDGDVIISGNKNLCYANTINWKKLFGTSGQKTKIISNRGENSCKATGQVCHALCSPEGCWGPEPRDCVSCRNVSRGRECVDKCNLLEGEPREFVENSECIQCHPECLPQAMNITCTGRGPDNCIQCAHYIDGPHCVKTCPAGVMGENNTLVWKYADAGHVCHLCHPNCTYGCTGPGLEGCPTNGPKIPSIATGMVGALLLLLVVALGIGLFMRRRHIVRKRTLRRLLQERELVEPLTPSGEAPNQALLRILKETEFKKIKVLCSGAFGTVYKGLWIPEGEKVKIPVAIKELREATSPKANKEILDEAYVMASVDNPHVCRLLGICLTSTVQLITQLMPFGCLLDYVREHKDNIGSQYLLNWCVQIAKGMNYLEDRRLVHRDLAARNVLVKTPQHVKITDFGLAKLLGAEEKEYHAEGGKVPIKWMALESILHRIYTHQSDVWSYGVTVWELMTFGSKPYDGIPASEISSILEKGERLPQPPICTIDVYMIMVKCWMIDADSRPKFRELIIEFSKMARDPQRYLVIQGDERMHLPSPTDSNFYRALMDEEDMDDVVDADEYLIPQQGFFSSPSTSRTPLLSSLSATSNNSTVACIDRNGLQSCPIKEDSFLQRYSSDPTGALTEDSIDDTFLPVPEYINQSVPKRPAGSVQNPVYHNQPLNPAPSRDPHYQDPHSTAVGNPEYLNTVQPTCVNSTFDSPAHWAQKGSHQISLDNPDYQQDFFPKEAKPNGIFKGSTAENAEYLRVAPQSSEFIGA
Ribosomal protein S6 kinase alpha-1, sequence (Q15418 whole entry): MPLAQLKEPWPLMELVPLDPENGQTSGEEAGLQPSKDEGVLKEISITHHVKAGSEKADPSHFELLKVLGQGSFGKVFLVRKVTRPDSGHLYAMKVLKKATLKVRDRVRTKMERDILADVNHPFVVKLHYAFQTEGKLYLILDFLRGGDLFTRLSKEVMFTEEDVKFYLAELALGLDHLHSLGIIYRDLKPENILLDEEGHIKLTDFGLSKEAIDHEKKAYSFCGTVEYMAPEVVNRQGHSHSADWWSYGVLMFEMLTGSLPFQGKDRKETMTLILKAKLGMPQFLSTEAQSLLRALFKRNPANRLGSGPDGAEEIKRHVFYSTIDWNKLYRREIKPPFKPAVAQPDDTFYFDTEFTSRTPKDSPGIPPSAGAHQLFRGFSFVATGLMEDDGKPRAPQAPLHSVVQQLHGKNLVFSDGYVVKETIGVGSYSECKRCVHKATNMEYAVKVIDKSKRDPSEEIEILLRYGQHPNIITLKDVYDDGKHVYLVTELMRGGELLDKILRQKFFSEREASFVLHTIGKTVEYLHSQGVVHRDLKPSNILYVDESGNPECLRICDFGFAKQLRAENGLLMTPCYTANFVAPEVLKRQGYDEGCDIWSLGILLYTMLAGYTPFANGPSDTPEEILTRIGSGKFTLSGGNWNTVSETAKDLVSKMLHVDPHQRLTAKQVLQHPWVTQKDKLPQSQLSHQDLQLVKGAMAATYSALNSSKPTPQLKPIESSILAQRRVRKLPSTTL

As for `CNC(=O)Nc1ccc(-c2nc(N3CC4CCC(C3)O4)c3cnn(C4CCC5(CC4)OCCO5)c3n2)cc1`, the figures for the % of inhibition in [1] and in experiment [2] were 7% and 13%, respectively.

For the compound `O=C(NOC[C@H](O)CO)c1ccc(F)c(F)c1Nc1ccc(I)cc1F`, the % of control in experiment [3] came out at 86%; in [4] it was 66%; in [5] it was 100%; in experiment [6], 79%; in [7], 77%; in experiment [8] it was 84%.

Regarding `N#Cc1cccc(-c2c[nH]c3ncnc(N4CCOCC4)c23)c1`, the % of inhibition in [9] is -1%.

On to `CC[C@@H]1[C@H](F)C(=O)N[C@@H]1COc1nccc2cc(C(N)=O)c(OC)cc12` [ZIMLOVISERTIB], for which the % of inhibition in [10] (at 0.01 µM) was -5.9%; in experiment [10] (at 0.04 µM), -8.6%; in experiment [10] (at 0.2 µM) it was -9.9%; in experiment [10] (at 1 µM), -4.8%; in experiment [10] (at 5 µM), -3.1%.
